From ChEMBL document CHEMBL2440076, “New triarylpyrazoles as broad-spectrum anticancer agents: design, synthesis, and biological evaluation” (Eur J Med Chem, 2013)

Tests used:
Assay type in all cases: functional
SNB-19 [1] = experiment: Growth inhibition of human SNB19 cells assessed as cell growth at 5X10'-5 M after 48 hrs by sulforhodamine B assay; details: SNB-19, 48 h, read-out: Activity
HOP-62 = experiment: Growth inhibition of human HOP62 cells assessed as cell growth at 5X10'-5 M after 48 hrs by sulforhodamine B assay; details: HOP-62, 48 h, read-out: Activity
SR [2] = experiment: Growth inhibition of human SR cells assessed as cell growth at 5X10'-5 M after 48 hrs by sulforhodamine B assay; details: read-out: Activity
SN12C = experiment: Growth inhibition of human SN12C cells assessed as cell growth at 5X10'-6 M after 48 hrs by sulforhodamine B assay; details: read-out: Activity
SK-OV-3 = experiment: Growth inhibition of human SKOV3 cells assessed as cell growth at 5X10'-6 M after 48 hrs by sulforhodamine B assay; details: SK-OV-3, 48 h, read-out: Activity
OVCAR-8 = experiment: Growth inhibition of human OVCAR8 cells assessed as cell growth at 5X10'-6 M after 48 hrs by sulforhodamine B assay; details: OVCAR-8, 48 h, read-out: Activity
IGROV-1 [3] = experiment: Growth inhibition of human IGROV1 cells assessed as cell growth at 5X10'-6 M after 48 hrs by sulforhodamine B assay; details: IGROV-1, 48 h, read-out: Activity
Malme-3M = experiment: Growth inhibition of human MALME-3M cells assessed as cell growth at 5X10'-6 M after 48 hrs by sulforhodamine B assay; details: read-out: Activity
NCI-H460 = experiment: Growth inhibition of human NCI-H460 cells assessed as cell growth at 5X10'-9 M after 48 hrs by sulforhodamine B assay; details: NCI-H460, 48 h, read-out: Activity
A549 = experiment: Growth inhibition of human A549/ATCC cells assessed as cell growth at 5X10'-9 M after 48 hrs by sulforhodamine B assay; details: A549, 48 h, read-out: Activity
SF-295 [4] = experiment: Growth inhibition of human SF295 cells assessed as cell growth at 5X10'-6 M after 48 hrs by sulforhodamine B assay; details: SF-295, 48 h, read-out: Activity
SW-620 [5] = experiment: Growth inhibition of human SW620 cells assessed as cell growth at 5X10'-6 M after 48 hrs by sulforhodamine B assay; details: SW-620, 48 h, read-out: Activity
NCI-H522 = experiment: Growth inhibition of human NCI-H522 cells assessed as cell growth at 5X10'-6 M after 48 hrs by sulforhodamine B assay; details: NCI-H522, 48 h, read-out: Activity
CCRF-CEM = experiment: Growth inhibition of human CCRF-CEM cells assessed as cell growth at 5X10'-6 M after 48 hrs by sulforhodamine B assay; details: read-out: Activity
PC-3 = experiment: Growth inhibition of human PC3 cells assessed as cell growth at 5X10'-7 M after 48 hrs by sulforhodamine B assay; details: PC-3, 48 h, read-out: Activity
LOX IMVI [6] = experiment: Growth inhibition of human LOXIMVI cells assessed as cell growth at 5X10'-7 M after 48 hrs by sulforhodamine B assay; details: read-out: Activity
U-251 = experiment: Growth inhibition of human U251 cells assessed as cell growth at 5X10'-7 M after 48 hrs by sulforhodamine B assay; details: U-251, 48 h, read-out: Activity
SW-620 [7] = experiment: Growth inhibition of human SW620 cells assessed as cell growth at 5X10'-7 M after 48 hrs by sulforhodamine B assay; details: SW-620, 48 h, read-out: Activity
KM12 = experiment: Growth inhibition of human KM12 cells assessed as cell growth at 5X10'-7 M after 48 hrs by sulforhodamine B assay; details: KM12, 48 h, read-out: Activity
NCI-H226 = experiment: Growth inhibition of human NCI-H226 cells assessed as cell growth at 5X10'-7 M after 48 hrs by sulforhodamine B assay; details: NCI-H226, 48 h, read-out: Activity
HOP-92 = experiment: Growth inhibition of human HOP92 cells assessed as cell growth at 5X10'-7 M after 48 hrs by sulforhodamine B assay; details: HOP-92, 48 h, read-out: Activity
MOLT-4 = experiment: Growth inhibition of human MOLT4 cells assessed as cell growth at 5X10'-7 M after 48 hrs by sulforhodamine B assay; details: MOLT-4, 48 h, read-out: Activity
MDA-MB-468 = experiment: Growth inhibition of human MDA-MB-468 cells assessed as cell growth at 5X10'-8 M after 48 hrs by sulforhodamine B assay; details: MDA-MB-468, 48 h, read-out: Activity
786-0 = experiment: Growth inhibition of human 786-0 cells assessed as cell growth at 5X10'-8 M after 48 hrs by sulforhodamine B assay; details: 786-0, 48 h, read-out: Activity
OVCAR-5 = experiment: Growth inhibition of human OVCAR5 cells assessed as cell growth at 5X10'-8 M after 48 hrs by sulforhodamine B assay; details: OVCAR-5, 48 h, read-out: Activity
SF-295 [8] = experiment: Growth inhibition of human SF295 cells assessed as cell growth at 5X10'-8 M after 48 hrs by sulforhodamine B assay; details: SF-295, 48 h, read-out: Activity
UO-31 [9] = experiment: Growth inhibition of human UO31 cells assessed as cell growth at 5X10'-5 M after 48 hrs by sulforhodamine B assay; details: UO-31, 48 h, read-out: Activity
OVCAR-4 = experiment: Growth inhibition of human OVCAR4 cells assessed as cell growth at 5X10'-5 M after 48 hrs by sulforhodamine B assay; details: OVCAR-4, 48 h, read-out: Activity
IGROV-1 [10] = experiment: Growth inhibition of human IGROV1 cells assessed as cell growth at 5X10'-5 M after 48 hrs by sulforhodamine B assay; details: IGROV-1, 48 h, read-out: Activity
SK-MEL-5 = experiment: Growth inhibition of human SK-MEL-5 cells assessed as cell growth at 5X10'-5 M after 48 hrs by sulforhodamine B assay; details: SK-MEL-5, 48 h, read-out: Activity
SK-MEL-28 = experiment: Growth inhibition of human SK-MEL-28 cells assessed as cell growth at 5X10'-5 M after 48 hrs by sulforhodamine B assay; details: SK-MEL-28, 48 h, read-out: Activity
HT-29 = experiment: Growth inhibition of human HT-29 cells assessed as cell growth at 5X10'-8 M after 48 hrs by sulforhodamine B assay; details: HT-29, 48 h, read-out: Activity
SR [11] = experiment: Growth inhibition of human SR cells assessed as cell growth at 5X10'-8 M after 48 hrs by sulforhodamine B assay; details: read-out: Activity
UO-31 [12] = experiment: Growth inhibition of human UO31 cells assessed as cell growth at 5X10'-9 M after 48 hrs by sulforhodamine B assay; details: UO-31, 48 h, read-out: Activity
OVCAR-3 = experiment: Growth inhibition of human OVCAR3 cells assessed as cell growth at 5X10'-9 M after 48 hrs by sulforhodamine B assay; details: OVCAR-3, 48 h, read-out: Activity
LOX IMVI [13] = experiment: Growth inhibition of human LOXIMVI cells assessed as cell growth at 5X10'-9 M after 48 hrs by sulforhodamine B assay; details: read-out: Activity
SNB-19 [14] = experiment: Growth inhibition of human SNB19 cells assessed as cell growth at 5X10'-9 M after 48 hrs by sulforhodamine B assay; details: SNB-19, 48 h, read-out: Activity

Row | Structure (SMILES) | growth at 50 µM (SNB-19 [1]) [%] | growth at 50 µM (HOP-62) [%] | growth at 50 µM (SR [2]) [%] | growth at 5 µM (SN12C) [%] | growth at 5 µM (SK-OV-3) [%] | growth at 5 µM (OVCAR-8) [%] | growth at 5 µM (IGROV-1 [3]) [%] | growth at 5 µM (Malme-3M) [%] | growth at 0.005 µM (NCI-H460) [%] | growth at 0.005 µM (A549) [%] | growth at 5 µM (SF-295 [4]) [%] | growth at 5 µM (SW-620 [5]) [%] | growth at 5 µM (NCI-H522) [%] | growth at 5 µM (CCRF-CEM) [%] | growth at 0.5 µM (PC-3) [%] | growth at 0.5 µM (LOX IMVI [6]) [%] | growth at 0.5 µM (U-251) [%] | growth at 0.5 µM (SW-620 [7]) [%] | growth at 0.5 µM (KM12) [%] | growth at 0.5 µM (NCI-H226) [%] | also measured
1 | COc1cc(-c2nn(-c3cccc(NC(=O)Nc4cc(C(F)(F)F)cc(C(F)(F)F)c4)c3)cc2-c2ccncc2)ccc1Cl | -40 | -95 | -5 | -16 | -39 | -6 | -42 | -47 | 99 | 96 | -71 | -51 | -48 | -17 | 33 | 84 | 60 | 69 | 53 | 83 | growth at 0.5 µM (HOP-92): 30%; growth at 0.5 µM (MOLT-4): 77%; growth at 0.05 µM (MDA-MB-468): 85%; growth at 0.05 µM (786-0): 102%; growth at 0.05 µM (OVCAR-5): 87%; growth at 0.05 µM (SF-295 [8]): 94%; growth at 50 µM (UO-31 [9]): -93%; growth at 50 µM (OVCAR-4): -21%; growth at 50 µM (IGROV-1 [10]): -54%; growth at 50 µM (SK-MEL-5): -93%; growth at 50 µM (SK-MEL-28): -87%; growth at 0.05 µM (HT-29): 108%; growth at 0.05 µM (SR [11]): 103%; growth at 0.005 µM (UO-31 [12]): 90%; growth at 0.005 µM (OVCAR-3): 114%; growth at 0.005 µM (LOX IMVI [13]): 101%; growth at 0.005 µM (SNB-19 [14]): 95%
2 | COc1cc(-c2nn(-c3cccc(NC(=O)c4cccc(C(F)(F)F)c4)c3)cc2-c2ccncc2)ccc1Cl | 28 | 51 | -2 | 41 | 24 | 23 | 22 | 21 | 100 | 102 | -24 | 30 | -10 | 6 | 71 | 84 | 88 | 89 | 89 | 84 | growth at 0.5 µM (HOP-92): 53%; growth at 0.5 µM (MOLT-4): 91%; growth at 0.05 µM (MDA-MB-468): 90%; growth at 0.05 µM (786-0): 98%; growth at 0.05 µM (OVCAR-5): 90%; growth at 0.05 µM (SF-295 [8]): 95%; growth at 50 µM (UO-31 [9]): 19%; growth at 50 µM (OVCAR-4): 29%; growth at 50 µM (IGROV-1 [10]): 5%; growth at 50 µM (SK-MEL-5): -51%; growth at 50 µM (SK-MEL-28): 38%; growth at 0.05 µM (HT-29): 96%; growth at 0.05 µM (SR [11]): 98%; growth at 0.005 µM (UO-31 [12]): 82%; growth at 0.005 µM (OVCAR-3): 105%; growth at 0.005 µM (LOX IMVI [13]): 94%; growth at 0.005 µM (SNB-19 [14]): 100%
